Assay results published in patent publication US12448410B2, “Derivative of sarsasapogenin, pharmaceutical composition and use thereof” (Phytovent Biopharma, priority 2018, dated 2025).

Legend:
Type in all cases: cell-based
A549 lung cancer cells = test: CTG cell proliferation, in vitro growth inhibition of A549 lung cancer cells; conditions: Homo sapiens, 72 hours, CellTiter-Glo
Procedure: (§1) Study of CTG Cell Proliferation—Inhibition of In-Vitro Growth of Various Tumor Cells by Sarsasapogenin Derivative
(§2) Tumor cells included: human A549 cells (lung cancer cells) (ATCC, Catalog No. CCL-185), HeLa cells (cervical cancer cells) (ATCC, Catalog No. CCL-2), HepG2 cells (liver cancer cells) (ATCC, Catalog No. HB-8065), A375 cells (melanoma cells) (ATCC, Catalog No. CRL-1619), MCF-7 (breast cancer cell) (ATCC, Catalog No. HTB-22), U87MG (brain glioma cell) (ATCC, Catalog No. HTB-14), LN229 (ATCC, Catalog No. CRL-2611), A172 (ATCC, Catalog No. CRL-1620), KNS-42 (JCRB, Catalog No. IF050356), BE(2)-C (ATCC, Catalog No. CRL-2268), U118MG (ATCC, Catalog No. HTB-15), SW-1088 (ATCC, Catalog No. HTB-12), and SH-SY5Y (CLS, Catalog No. 300154).
(§3) The aforementioned tumor cells were inoculated into clear-bottom white 96-well culture plates (Corning, Catalog No. CLS3903) containing specific medium at 1.8 to 15×10^3 cells per well, and were incubated in an incubator (37° C., 5% CO2) for 24 hours.
(§4) A 10 mM stock solution was prepared by using DMSO (Sigma, Catalog No. D2650) for each compound, diluted with medium to required concentrations (final concentration of DMSO: 0.2%) and added into each well with 2 replicate wells/concentration. The cells were incubated in the incubator at 37° C. and 5% CO2 for 72 hours. Then, 100 μL of CellTiter-Glo® cell activity assay reagent (Promega, Catalog No. G7573) was added into each well and well mixed using a shaker for 10 minutes to induce cytolysis. The 96-well plates were let stand at room temperature for 10 minutes to stabilize the luminous signals. With white bottom membranes attached to the bottoms of the culture plates, the plates were read using EnSpire system. Data were processed by XLfit software to give IC50 values.

U118MG = test: CTG cell proliferation, brain tumor cells U118MG; conditions: Homo sapiens, U-118-MG, 72 hours, CellTiter-Glo, read-out: Inhibition of in vitro growth of brain tumor cells (IC50)
Procedure: as §1, §2, §3, §4

LN229 = test: CTG cell proliferation, brain tumor cells LN229; conditions: Homo sapiens, LN-229; LN229, 72 hours, CellTiter-Glo; read-out: Inhibition of in vitro growth of brain tumor cells (IC50)
Procedure: as §1, §2, §3, §4

SW-1088 = test: CTG cell proliferation, brain tumor cells SW-1088; conditions: Homo sapiens, SW1088; SW-1088, 72 hours, CellTiter-Glo; read-out: Inhibition of in vitro growth of brain tumor cells (IC50)
Procedure: as §1, §2, §3, §4

KNS-42 = test: CTG cell proliferation, brain tumor cells KNS-42; conditions: Homo sapiens; KNS-42, 72 hours, CellTiter-Glo; read-out: Inhibition of in vitro growth of brain tumor cells (IC50)
Procedure: as §1, §2, §3, §4

SH-SY5Y = test: CTG cell proliferation, brain tumor cells SH-SY5Y; conditions: Homo sapiens, 72 hours, CellTiter-Glo, read-out: Inhibition of in vitro growth of brain tumor cells (IC50)
Procedure: as §1, §2, §3, §4

[1] = tested on: U87MG (brain glioma cell); test: CTG cell proliferation, brain tumor cells U87MG; conditions: Homo sapiens, U-87 MG, 72 hours, CellTiter-Glo, read-out: Inhibition of in vitro growth of brain tumor cells (IC50)
Procedure: as §1, §2, §3, §4

BE(2)-C = test: CTG cell proliferation, brain tumor cells BE(2)-C; conditions: Homo sapiens, 72 hours, CellTiter-Glo, read-out: Inhibition of in vitro growth of brain tumor cells (IC50)
Procedure: as §1, §2, §3, §4

A172 = test: CTG cell proliferation, brain tumor cells A172; conditions: Homo sapiens, A 172; A172, 72 hours, CellTiter-Glo; read-out: Inhibition of in vitro growth of brain tumor cells (IC50)
Procedure: as §1, §2, §3, §4

Structure (SMILES) | inhibition at 1 µM (A549 lung cancer cells) [%] | inhibition at 5 µM (A549 lung cancer cells) [%] | inhibition at 10 µM (A549 lung cancer cells) [%] | IC50 (U118MG) [nM] | IC50 (LN229) [nM] | IC50 (SW-1088) [nM] | IC50 (KNS-42) [nM] | IC50 (SH-SY5Y) [nM] | IC50 [1] [nM] | IC50 (BE(2)-C) [nM] | IC50 (A172) [nM]
C[C@H]1CC[C@@]2(OC1)O[C@H]1C[C@H]3[C@@H]4CC[C@@H]5CC(NC(=O)CC(=O)N6CCN(CCN7CCCC7)CC6)CC[C@]5(C)[C@H]4CC[C@]3(C)[C@H]1[C@@H]2C (stereo partly drawn) [Example 12] | 4.5 | 89.6 | 98.5 | – | – | – | – | – | – | – | –
C[C@H]1CC[C@@]2(OC1)O[C@H]1C[C@H]3[C@@H]4CC[C@@H]5CC(NC(=O)CCN6CCN(C)CC6)CC[C@]5(C)[C@H]4CC[C@]3(C)[C@H]1[C@@H]2C (stereo partly drawn) [Example 2] | 95.3 | 98.1 | 100 | – | – | – | – | – | – | – | –
C[C@H]1CC[C@@]2(OC1)O[C@H]1C[C@H]3[C@@H]4CC[C@@H]5CC(NC(=O)CC(=O)NCC6CCN(C)CC6)CC[C@]5(C)[C@H]4CC[C@]3(C)[C@H]1[C@@H]2C (stereo partly drawn) [Example 7] | -0.84 | 91.7 | 99.9 | – | – | – | – | – | – | – | –
C[C@H]1CC[C@@]2(OC1)O[C@H]1C[C@H]3[C@@H]4CC[C@@H]5CC(NC(=O)CC(=O)N6CCNCC6)CC[C@]5(C)[C@H]4CC[C@]3(C)[C@H]1[C@@H]2C (stereo partly drawn) [Example 10] | 5.08 | 65.8 | 99.3 | – | – | – | – | – | – | – | –
C[C@H]1CC[C@@]2(OC1)O[C@H]1C[C@H]3[C@@H]4CC[C@@H]5CC(NC(=O)CCN(C)C)CC[C@]5(C)[C@H]4CC[C@]3(C)[C@H]1[C@@H]2C (stereo partly drawn) [Example 4] | 18.2 | 99 | 100 | 1930 | 2290 | 2720 | 1920 | 2800 | 2360 | 3310 | 3040
C[C@H]1CC[C@@]2(OC1)O[C@H]1C[C@H]3[C@@H]4CC[C@@H]5CC(NC(=O)CC(=O)N6CCN(C)CC6)CC[C@]5(C)[C@H]4CC[C@]3(C)[C@H]1[C@@H]2C (stereo partly drawn) [Example 5] | 1.37 | 48.3 | 95.9 | – | – | – | – | – | – | – | –
C[C@H]1CC[C@@]2(OC1)O[C@H]1C[C@H]3[C@@H]4CC[C@@H]5CC(NC(=O)CC(=O)NCCCN6CCOCC6)CC[C@]5(C)[C@H]4CC[C@]3(C)[C@H]1[C@@H]2C (stereo partly drawn) [Example 8] | 36.2 | 7.71 | 93.5 | – | – | – | – | – | – | – | –
C[C@H]1CC[C@@]2(OC1)O[C@H]1C[C@H]3[C@@H]4CC[C@@H]5CC(NC(=O)C6CCN(C)CC6)CC[C@]5(C)[C@H]4CC[C@]3(C)[C@H]1[C@@H]2C (stereo partly drawn) [Example 1] | -5.25 | 31.1 | 87.6 | – | – | – | – | – | – | – | –
C[C@H]1CC[C@@]2(OC1)O[C@H]1C[C@H]3[C@@H]4CC[C@@H]5CC(NC(=O)CN(C)C)CC[C@]5(C)[C@H]4CC[C@]3(C)[C@H]1[C@@H]2C (stereo partly drawn) [Example 3] | 1 | 86.2 | 99 | – | – | – | – | – | – | – | –
C[C@H]1CC[C@@]2(OC1)O[C@H]1C[C@H]3[C@@H]4CC[C@@H]5C[C@H](NC(=O)CCN6CCN(C)CC6)CC[C@]5(C)[C@H]4CC[C@]3(C)[C@H]1[C@@H]2C [Example 2B] | – | – | – | 5170 | 5520 | 2750 | 4780 | > 10000 | 4660 | 7900 | 3840
C[C@H]1CC[C@@]2(OC1)O[C@H]1C[C@H]3[C@@H]4CC[C@@H]5CC(NC(=O)CC(=O)NC6CCN(C)CC6)CC[C@]5(C)[C@H]4CC[C@]3(C)[C@H]1[C@@H]2C (stereo partly drawn) [Example 6] | -6.51 | 82.2 | 99.8 | – | – | – | – | – | – | – | –
C[C@H]1CC[C@@]2(OC1)O[C@H]1C[C@H]3[C@@H]4CC[C@@H]5CC(NC(=O)CC(=O)N6CC7CNCC7C6)CC[C@]5(C)[C@H]4CC[C@]3(C)[C@H]1[C@@H]2C (stereo partly drawn) [Example 11] | 3.86 | 57.3 | 97.2 | – | – | – | – | – | – | – | –
C[C@H]1CC[C@@]2(OC1)O[C@H]1C[C@H]3[C@@H]4CC[C@@H]5CC(NC(=O)CC(=O)N6CCC(N7CCCCC7)CC6)CC[C@]5(C)[C@H]4CC[C@]3(C)[C@H]1[C@@H]2C (stereo partly drawn) [Example 9] | 2.09 | 22.9 | 97.8 | – | – | – | – | – | – | – | –
C[C@H]1CC[C@@]2(OC1)O[C@H]1C[C@H]3[C@@H]4CC[C@@H]5C[C@@H](NC(=O)CCN6CCN(C)CC6)CC[C@]5(C)[C@H]4CC[C@]3(C)[C@H]1[C@@H]2C [Example 2A] | – | – | – | 1070 | 1620 | 660 | 1770 | 2780 | 1560 | 2850 | 1660
